Results from US20260130395A1, “Water Dispersible Botanical Compositions” (Aquila Black Limited, priority 2021, published 2026).

Assay: Stability of cannabinoid entourage and Vitamin E components of the powder concentrate by LCMSMS
Assay type: physicochemical
Conditions: powder stored at 21-25° C.
Procedure: At each time period, 0.05 g of powder was dissolved in 10 ml-15 of ethanol, diluted to fall within the analytical range, and injected into the LCMSMS for analysis.

SMILES: CCCCCc1cc(O)c2c(c1)OC1(C)CCC3C1C2C3(C)C (centres unmarked) [CBL, cannabicyclol]
- Stability of Plant-Derived Cannabinoid Compounds in Powder Concentrate (0 days): 0.050 mg/g powder
- Stability of Plant-Derived Cannabinoid Compounds in Powder Concentrate (1 days): 0.051 mg/g powder
- Stability of Plant-Derived Cannabinoid Compounds in Powder Concentrate (2 days): 0.049 mg/g powder
- Stability of Plant-Derived Cannabinoid Compounds in Powder Concentrate (3 days): 0.050 mg/g powder
- Stability of Plant-Derived Cannabinoid Compounds in Powder Concentrate (5 days): 0.052 mg/g powder
- Stability of Plant-Derived Cannabinoid Compounds in Powder Concentrate (8 days): 0.050 mg/g powder
- Stability of Plant-Derived Cannabinoid Compounds in Powder Concentrate (9 days): 0.050 mg/g powder
- Stability of Plant-Derived Cannabinoid Compounds in Powder Concentrate (10 days): 0.050 mg/g powder
- Stability of Plant-Derived Cannabinoid Compounds in Powder Concentrate (11 days): 0.052 mg/g powder
- Stability of Plant-Derived Cannabinoid Compounds in Powder Concentrate (12 days): 0.052 mg/g powder
- Stability of Plant-Derived Cannabinoid Compounds in Powder Concentrate (15 days): 0.048 mg/g powder
- Stability of Plant-Derived Cannabinoid Compounds in Powder Concentrate (16 days): 0.049 mg/g powder
- Stability of Plant-Derived Cannabinoid Compounds in Powder Concentrate (17 days): 0.049 mg/g powder
- Stability of Plant-Derived Cannabinoid Compounds in Powder Concentrate (18 days): 0.052 mg/g powder
- Stability of Plant-Derived Cannabinoid Compounds in Powder Concentrate (19 days): 0.052 mg/g powder
- Stability of Plant-Derived Cannabinoid Compounds in Powder Concentrate (22 days): 0.051 mg/g powder
- Stability of Plant-Derived Cannabinoid Compounds in Powder Concentrate (23 days): 0.051 mg/g powder
- Stability of Plant-Derived Cannabinoid Compounds in Powder Concentrate (24 days): 0.050 mg/g powder
- Stability of Plant-Derived Cannabinoid Compounds in Powder Concentrate (25 days): 0.050 mg/g powder
- Stability of Plant-Derived Cannabinoid Compounds in Powder Concentrate (26 days): 0.051 mg/g powder
- Stability of Plant-Derived Cannabinoid Compounds in Powder Concentrate (29 days): 0.048 mg/g powder
- Stability of Plant-Derived Cannabinoid Compounds in Powder Concentrate (30 days): 0.051 mg/g powder
- Stability of Plant-Derived Cannabinoid Compounds in Powder Concentrate (60 days): 0.050 mg/g powder
- Stability of Plant-Derived Cannabinoid Compounds in Powder Concentrate (90 days): 0.050 mg/g powder
- Stability of Plant-Derived Cannabinoid Compounds in Powder Concentrate (120 days): 0.048 mg/g powder
- Stability of Plant-Derived Cannabinoid Compounds in Powder Concentrate (150 days): 0.050 mg/g powder
- Stability of Plant-Derived Cannabinoid Compounds in Powder Concentrate (180 days): 0.049 mg/g powder
- Stability of Plant-Derived Cannabinoid Compounds in Powder Concentrate (210 days): 0.052 mg/g powder
- Stability of Plant-Derived Cannabinoid Compounds in Powder Concentrate (240 days): 0.049 mg/g powder
- Stability of Plant-Derived Cannabinoid Compounds in Powder Concentrate (270 days): 0.051 mg/g powder
- Stability of Plant-Derived Cannabinoid Compounds in Powder Concentrate (300 days): 0.050 mg/g powder
- Stability of Plant-Derived Cannabinoid Compounds in Powder Concentrate (330 days): 0.049 mg/g powder
- Stability of Plant-Derived Cannabinoid Compounds in Powder Concentrate (360 days): 0.050 mg/g powder
- Stability of Plant-Derived Cannabinoid Compounds in Powder Concentrate (390 days): 0.052 mg/g powder
- Stability of Plant-Derived Cannabinoid Compounds in Powder Concentrate (420 days): 0.050 mg/g powder
- Stability of Plant-Derived Cannabinoid Compounds in Powder Concentrate (450 days): 0.052 mg/g powder
- Stability of Plant-Derived Cannabinoid Compounds in Powder Concentrate (480 days): 0.051 mg/g powder
- Stability of Plant-Derived Cannabinoid Compounds in Powder Concentrate (510 days): 0.050 mg/g powder
- Stability of Plant-Derived Cannabinoid Compounds in Powder Concentrate (540 days): 0.048 mg/g powder
- Stability of Plant-Derived Cannabinoid Compounds in Powder Concentrate (570 days): 0.050 mg/g powder

SMILES: Cc1c(C)c2c(c(C)c1OC(=O)CCC(=O)O)CC[C@@](C)(CCC[C@H](C)CCC[C@H](C)CCCC(C)C)O2 [α-Tocopheryl succinate]
- Stability of Vitamin Es in Powder Concentrate (0 days): 1.82 mg/g powder
- Stability of Vitamin Es in Powder Concentrate (1 days): 1.81 mg/g powder
- Stability of Vitamin Es in Powder Concentrate (2 days): 1.81 mg/g powder
- Stability of Vitamin Es in Powder Concentrate (3 days): 1.81 mg/g powder
- Stability of Vitamin Es in Powder Concentrate (5 days): 1.83 mg/g powder
- Stability of Vitamin Es in Powder Concentrate (8 days): 1.90 mg/g powder
- Stability of Vitamin Es in Powder Concentrate (9 days): 1.89 mg/g powder
- Stability of Vitamin Es in Powder Concentrate (10 days): 1.87 mg/g powder
- Stability of Vitamin Es in Powder Concentrate (11 days): 1.89 mg/g powder
- Stability of Vitamin Es in Powder Concentrate (12 days): 1.87 mg/g powder
- Stability of Vitamin Es in Powder Concentrate (15 days): 1.87 mg/g powder
- Stability of Vitamin Es in Powder Concentrate (16 days): 1.83 mg/g powder
- Stability of Vitamin Es in Powder Concentrate (17 days): 1.88 mg/g powder
- Stability of Vitamin Es in Powder Concentrate (18 days): 1.77 mg/g powder
- Stability of Vitamin Es in Powder Concentrate (19 days): 1.85 mg/g powder
- Stability of Vitamin Es in Powder Concentrate (22 days): 1.78 mg/g powder
- Stability of Vitamin Es in Powder Concentrate (23 days): 1.80 mg/g powder
- Stability of Vitamin Es in Powder Concentrate (24 days): 1.90 mg/g powder
- Stability of Vitamin Es in Powder Concentrate (25 days): 1.90 mg/g powder
- Stability of Vitamin Es in Powder Concentrate (26 days): 1.76 mg/g powder
- Stability of Vitamin Es in Powder Concentrate (29 days): 1.87 mg/g powder
- Stability of Vitamin Es in Powder Concentrate (30 days): 1.80 mg/g powder
- Stability of Vitamin Es in Powder Concentrate (60 days): 1.77 mg/g powder
- Stability of Vitamin Es in Powder Concentrate (90 days): 1.83 mg/g powder
- Stability of Vitamin Es in Powder Concentrate (120 days): 1.83 mg/g powder
- Stability of Vitamin Es in Powder Concentrate (150 days): 1.89 mg/g powder
- Stability of Vitamin Es in Powder Concentrate (180 days): 1.77 mg/g powder
- Stability of Vitamin Es in Powder Concentrate (210 days): 1.80 mg/g powder
- Stability of Vitamin Es in Powder Concentrate (240 days): 1.84 mg/g powder
- Stability of Vitamin Es in Powder Concentrate (270 days): 1.87 mg/g powder
- Stability of Vitamin Es in Powder Concentrate (300 days): 1.84 mg/g powder
- Stability of Vitamin Es in Powder Concentrate (330 days): 1.83 mg/g powder
- Stability of Vitamin Es in Powder Concentrate (360 days): 1.79 mg/g powder
- Stability of Vitamin Es in Powder Concentrate (390 days): 1.87 mg/g powder
- Stability of Vitamin Es in Powder Concentrate (420 days): 1.82 mg/g powder
- Stability of Vitamin Es in Powder Concentrate (450 days): 1.80 mg/g powder
- Stability of Vitamin Es in Powder Concentrate (480 days): 1.76 mg/g powder
- Stability of Vitamin Es in Powder Concentrate (510 days): 1.76 mg/g powder
- Stability of Vitamin Es in Powder Concentrate (540 days): 1.80 mg/g powder
- Stability of Vitamin Es in Powder Concentrate (570 days): 1.77 mg/g powder
